Experimental data as given in patent publication US11352350B2, “IRAK degraders and uses thereof” (Kymera Therapeutics, Inc., priority 2018, dated 2022).
Where two headings read alike, the source gives them in different places.

Tests used:
IRAK4 [1] = target: T1, IRAK4 (Homo sapiens (Human), UniProt Q9NWZ3); experiment: IRAK4 MSD degradation in OCI-LY10; assay type: cell-based
Procedure, shortened: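 Remaining IRAK4 quantified by electrochemiluminescent MSD sandwich assay with two anti-IRAK4 antibodies. Compounds were dosed as 8 concentrations in 1:3 steps from a 1 to 10 μM final top on OCI-LY10 cells, incubated 4 to 24 h at 37° C. under 5% CO2. DC50 fitted with a three-parameter logistic curve.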

OCI-LY10 = experiment: CTG Cell Viability Assay - OCI-LY10; assay type: cell-based, human; settings: OCI-LY10, 4 days, read-out: CTG Cell Viability Assay - OCI-LY10: Average external-IC50
Procedure, shortened: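 Viability read by CellTiter-Glo luminescence after 4 days at 37° C under 5% CO2 with compound (top 10 μM final, 1:3 steps, 9 doses, DMSO 0.2%). Three-parameter logistic fit gave IC50.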

IRAK4 [2] = target: T1, IRAK4; experiment: hPBMC IRAK4 degradation flow assay; assay type: cell-based; settings: hPBMC monocyte
Method: hPBMC IRAK4 degradation flow assay. Frozen PBMCs were thawed into RPMI with 10% FBS and allowed to recover. On the same day as thawed, PBMCs were plated in 96 well plate, 90 uL per well. Compound plates were prepared and a 10 point, 5-fold dilution was performed with a final DMSO concentration of 0.1%. Compound 10 μL per well was added, sealed and incubated at 37° C., 5% C02 for 20 hours (for 4 hour treatment, compounds were prepared and added the following day). […] Cells were spun down and washed two times with PBS/0.5% BSA, aspirated to pellet and placed into −80° C. freezer until further processing for flow. On the flow run day, PBMC plates were thawed and samples were transferred to PCR plates. The pre-perm staining cocktail (CD3 Ax488/CD8 BUV805/CD14 BUV395/CD16/56 BV711/CD19 BV785) was added to samples and incubated for 30 minutes at room temperature. Samples were washed two times and permeabilized with methanol for 10 minutes at 4° C. […] Samples were washed two times with PBS/BSA and run on a BD LSRFortessa. Mononuclear cells are gated by SSCH/FSCH and single cells. Monocytes are then gated through CD14 positive gate and lymphocytes are gated through CD14 negative gate. To determine absolute DC50s and max degradation values, MFI values were normalized to DMSO max and 20 hour 10 μM min control. Twenty hour dose curves were calculated using a 4 parameter logistic regression curve fit, no constraints (Top doses were removed if hook effects were observed and the bottom was constrained to 0).

[3] = OCI-LY10, 4 hrs, MSD, read-out: IRAK4 MSD degradation in OCI-LY10 at 4 hrs: Average external-Abs DC50
[4] = 20 hr, flow assay, read-out: IRAK4 degradation in hPBMC monocyte at 20 hr: Average external Abs DC50
[5] = OCI-LY10, 4 hrs, read-out: IRAK4 MSD degradation in OCI-LY10 at 4 hrs: DC50
[6] = 20 hrs, read-out: IRAK4 degradation in hPBMC monocyte: DC50

T1 sequence (Q9NWZ3 whole entry): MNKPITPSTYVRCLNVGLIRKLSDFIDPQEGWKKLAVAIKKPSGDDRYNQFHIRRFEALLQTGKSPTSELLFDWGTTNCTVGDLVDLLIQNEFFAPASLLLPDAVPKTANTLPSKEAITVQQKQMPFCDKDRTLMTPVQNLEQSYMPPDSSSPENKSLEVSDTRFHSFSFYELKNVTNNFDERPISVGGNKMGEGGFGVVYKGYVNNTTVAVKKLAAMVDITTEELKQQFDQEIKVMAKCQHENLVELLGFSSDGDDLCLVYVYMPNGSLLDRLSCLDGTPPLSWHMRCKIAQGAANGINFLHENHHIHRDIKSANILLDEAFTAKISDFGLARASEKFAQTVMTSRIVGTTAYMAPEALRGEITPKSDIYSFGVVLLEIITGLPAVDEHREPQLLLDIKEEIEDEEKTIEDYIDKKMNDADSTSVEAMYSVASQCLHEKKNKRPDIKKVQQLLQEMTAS

SMILES	DC50 (IRAK4 [1]; [5]) [nM]	DC50 (IRAK4 [2]; [6]) [nM]	further results
CN(CCCOCCCNc1cccc2c1C(=O)N(C1CCC(=O)NC1=O)C2=O)Cc1ccc(-n2cc(NC(=O)c3cnn4ccc(N5C[C@H]6C[C@@H]5CO6)nc34)c(C(F)F)n2)cc1 (some centres unmarked) [I-320]			DC50 (IRAK4 [1]; [3]): > 1000 nM; IC50 (OCI-LY10): > 1000 nM; DC50 (IRAK4 [2]; [4]): 10 to 100 nM
Cn1c(=O)n(C2CCC(=O)NC2=O)c2cccc(CN3CC4(CCN(C(=O)[C@H]5CC[C@H](n6cc(NC(=O)c7cnn8ccc(N9C[C@H]%10C[C@@H]9CO%10)nc78)c(C(F)F)n6)CC5)CC4)C3)c21 (some centres unmarked) [I-429]			DC50 (IRAK4 [2]; [4]): < 10 nM
Cn1c(=O)n(C2CCC(=O)NC2=O)c2cccc(C#CCOC3CCN(C[C@H]4CC[C@H](n5cc(NC(=O)c6cnn7ccc(N8CCOC9(CCC9)C8)nc67)c(C(F)F)n5)CC4)CC3)c21 (some centres unmarked) [I-541]	10 to 100	< 10	
Cn1c(=O)n(C2CCC(=O)NC2=O)c2cccc(CCCOC3CCN(C[C@H]4CC[C@H](n5ncc(NC(=O)c6cnn7ccc(N8CCOCC8)nc67)c5C(F)F)CC4)CC3)c21 (some centres unmarked) [I-468]	100 to 1000	100 to 1000	
Cn1c(=O)n(C2CCC(=O)NC2=O)c2cccc(CCCOC3CCN(C[C@H]4CC[C@H](n5cc(NC(=O)c6cnn7ccc(N8CCOC9(CCC9)C8)nc67)c(C(F)F)n5)CC4)CC3)c21 (some centres unmarked) [I-542]	10 to 100	< 10	
Cn1c(=O)n(C2CCC(=O)NC2=O)c2cccc(CCCOC3CCN(C[C@H]4CC[C@H](n5cc(NC(=O)c6cnn7ccc(N8CCOC(C)(C)C8)nc67)c(C(F)F)n5)CC4)CC3)c21 (some centres unmarked) [I-539]	10 to 100	< 10	
Cn1c(=O)n(C2CCC(=O)NC2=O)c2cccc(C(=O)N3CCC(OC[C@H]4CC[C@H](n5cc(NC(=O)c6cnn7ccc(N8C[C@H]9C[C@@H]8CO9)nc67)c(C(F)F)n5)CC4)CC3)c21 (some centres unmarked) [I-427]			DC50 (IRAK4 [2]; [4]): 100 to 1000 nM
Cn1c(=O)n(C2CCC(=O)NC2=O)c2cccc(CCCCC3CCN(Cc4ccc(-n5cc(NC(=O)c6cnn7ccc(N8C[C@H]9C[C@@H]8CO9)nc67)c(C(F)F)n5)cc4)CC3)c21 (some centres unmarked) [I-436]			DC50 (IRAK4 [2]; [4]): 100 to 1000 nM
Cn1c(=O)n(C2CCC(=O)NC2=O)c2cccc(C#CCOC3CCN(C[C@H]4CC[C@H](n5cc(NC(=O)c6cnn7ccc(N8CCOC(C)(C)C8)nc67)c(C(F)F)n5)CC4)CC3)c21 (some centres unmarked) [I-533]	10 to 100	< 10	
Cn1c(=O)n(C2CCC(=O)NC2=O)c2cccc(CCCOCCCC(CNC[C@H]3CC[C@H](n4cc(NC(=O)c5cnn6ccc(N7C[C@H]8C[C@@H]7CO8)nc56)c(C(F)F)n4)CC3)C(=O)O)c21 (some centres unmarked) [I-470]	100 to 1000	100 to 1000	
Cn1c(=O)n(C2CCC(=O)NC2=O)c2cccc(CCCN3CCC4(CC3)CCN(C(=O)C3CCC(n5cc(NC(=O)c6cnn7ccc(N8C[C@H]9C[C@@H]8CO9)nc67)c(C(F)F)n5)CC3)CC4)c21 (some centres unmarked) [I-435]			DC50 (IRAK4 [2]; [4]): < 10 nM
Cn1c(=O)n(C2CCC(=O)NC2=O)c2cccc(C#CCC3CCN(C[C@H]4CC[C@H](C5N=C(NC(=O)c6cnn7ccc(N8C[C@H]9CC[C@@H](C8)O9)nc67)C(C(F)F)=N5)CC4)CC3)c21 (some centres unmarked) [I-534]	10 to 100	< 10	
C[C@@H](CCc1cccc2c1n(C)c(=O)n2C1CCC(=O)NC1=O)OC1CCN(C[C@H]2CC[C@H](n3cc(NC(=O)c4cnn5ccc(N6C[C@H]7C[C@@H]6CO7)cc45)c(C(F)F)n3)CC2)CC1 (some centres unmarked) [I-545]	< 10	< 10	
C[C@@H]1CC(OCCc2cccc3c2n(C)c(=O)n3C2CCC(=O)NC2=O)C[C@H](C)N1C[C@H]1CC[C@H](n2cc(NC(=O)c3cnn4ccc(N5C[C@H]6C[C@@H]5CO6)nc34)c(C(F)F)n2)CC1 (some centres unmarked) [I-558]		< 10	IC50 (OCI-LY10; Homo sapiens, OCI-Ly10, 96 h): > 1000 nM
CN1C(=O)C(C2CCC(=O)NC2=O)c2cc(C#CCOC3CCN(C[C@H]4CC[C@H](C5N=C(NC(=O)c6cnn7ccc(N8C[C@H]9C[C@@H]8CO9)nc67)C(C(F)F)=N5)CC4)CC3)ccc21 (some centres unmarked) [I-548]	100 to 1000	100 to 1000	
C[C@@H]1CN(c2ccn3ncc(C(=O)Nc4cn([C@H]5CC[C@H](CN6CCC(OCC#Cc7cccc8c7n(C)c(=O)n8C7CCC(=O)NC7=O)CC6)CC5)nc4C(F)F)c3n2)C[C@H](C)O1 (some centres unmarked) [I-531]	10 to 100	< 10	
C[C@H](/C=C/c1cccc2c1n(C)c(=O)n2C1CCC(=O)NC1=O)OC1CCN(C[C@H]2CC[C@H](n3cc(NC(=O)c4cnn5ccc(N6C[C@H]7C[C@@H]6CO7)nc45)c(C(F)F)n3)CC2)CC1 (some centres unmarked) [I-559]		< 10	IC50 (OCI-LY10; Homo sapiens, OCI-Ly10, 96 h): > 1000 nM
C[C@H]1CN(c2ccn3ncc(C(=O)Nc4cn([C@H]5CC[C@H](CN6CCC(OCC#Cc7cccc8c7n(C)c(=O)n8C7CCC(=O)NC7=O)CC6)CC5)nc4C(F)F)c3n2)C[C@H](C)O1 (some centres unmarked) [I-536]	10 to 100	< 10	
C[C@@H]1CN(c2ccn3ncc(C(=O)Nc4cn([C@H]5CC[C@H](CN6CCC(OCC#Cc7cccc8c7n(C)c(=O)n8C7CCC(=O)NC7=O)CC6)CC5)nc4C(F)F)c3n2)C[C@@H](C)O1 (some centres unmarked) [I-527]	10 to 100	< 10	
CN(C[C@H]1OC[C@H](n2cc(NC(=O)c3cnn4ccc(N5C[C@H]6C[C@@H]5CO6)nc34)c(C(F)F)n2)CO1)C1CCN(Cc2cccc3c2n(C)c(=O)n3C2CCC(=O)NC2=O)CC1 (stereo partly drawn) [I-507, N-[3-(difluoromethyl)-1-[2-[[[1-[[1-(2,6-dioxo-3-piperidyl)-3-methyl-2-oxo-benzimidazol-4-yl]methyl]-4-piperidyl]-methyl-amino]methyl]-1,3-dioxan-5-yl]pyrazol-4-yl]-5-[(1R,4R)-2-oxa-5-azabicyclo [2.2.1]heptan-5-yl] pyrazolo[1,5-a] pyrimidine-3-carboxamide]		< 10	
Cn1c(=O)n(C2CCC(=O)NC2=O)c2cccc(CCCC3CCN(C[C@H]4CC[C@H](C5N=C(NC(=O)c6cnn7ccc(N8C[C@H]9CC[C@@H](C8)O9)nc67)C(C(F)F)=N5)CC4)CC3)c21 (some centres unmarked) [I-535]	< 10	< 10	
CN(CCCC#Cc1ccc2c(c1)n(C)c(=O)n2C1CCC(=O)NC1=O)C[C@H]1CC[C@H](n2cc(NC(=O)c3cnn4ccc(N5C[C@H]6C[C@@H]5CO6)nc34)c(C(F)F)n2)CC1 (stereo partly drawn) [I-546, 5-((1R,4R)-2-oxa-5-azabicyclo[2.2.1]heptan-5-yl)-N-(3-(difluoromethyl)-1-((1r,4R)-4-(((5-(1-(2,6-dioxopiperidin-3-yl)-3-methyl-2-oxo-2,3-dihydro-1H-benzo [d]imidazol-5-yl)pent-4-yn-1-yl)(methyl)amino)methyl)cyclohexyl)-1H-pyrazol-4-yl)pyrazolo[1,5-a] pyrimidine-3-carboxamide]	100 to 1000	10 to 100	
CN(CCCC#Cc1cccc2c1n(C)c(=O)n2C1CCC(=O)NC1=O)C[C@H]1CC[C@H](n2cc(NC(=O)c3cnn4ccc(N5C[C@H]6C[C@@H]5CO6)nc34)c(C(F)F)n2)CC1 (stereo partly drawn) [I-550, 5-((1R,4R)-2-oxa-5-azabicyclo[2.2.1]heptan-5-yl)-N-(3-(difluoromethyl)-1-((1r,4R)-4-(((5-(1-(2,6-dioxopiperidin-3-yl)-3-methyl-2-oxo-2,3-dihydro-1H-benzo [d]imidazol-4-yl)pent-4-yn-1-yl)(methyl)amino)methyl)cyclohexyl)-1H-pyrazol-4-yl)pyrazolo[1,5-a] pyrimidine-3-carboxamide]	10 to 100	< 10	
Cn1c(=O)n(C2CCC(=O)NC2=O)c2ccc(CN3CCC(CCCN4CCC(n5cc(NC(=O)c6coc(-c7ccnc(NCC8CC8)c7)n6)c(C(F)F)n5)CC4)CC3)cc21 (centres unmarked) [I-254]			DC50 (IRAK4 [1]; [3]): 10 to 100 nM; IC50 (OCI-LY10; Homo sapiens, OCI-Ly10, 96 h): 100 to 500 nM
Cn1c(=O)n(C2CCC(=O)NC2=O)c2cccc(CCCC3CCN(C[C@H]4CC[C@H](C5N=C(NC(=O)c6cnn7ccc(N8CCOC9(CCC9)C8)nc67)C(C(F)F)=N5)CC4)CC3)c21 (some centres unmarked) [I-538]	10 to 100	< 10	
CN1C(=O)C(C2CCC(=O)NC2=O)c2cccc(CCCOC3CCN(C[C@H]4CC[C@H](n5cc(NC(=O)c6cnn7ccc(N8CC[C@H](O)C8)nc67)c(C(F)F)n5)CC4)CC3)c21 (some centres unmarked) [I-282]			DC50 (IRAK4 [1]; [3]): < 10 nM; IC50 (OCI-LY10; Homo sapiens, OCI-Ly10, 96 h): > 1000 nM
CN(CCCOCCCc1cccc2c1C(=O)N(C1CCC(=O)NC1=O)C2=O)C[C@H]1CC[C@H](n2cc(NC(=O)c3coc(-c4ccnc(NCC5CC5)c4)n3)c(C(F)F)n2)CC1 (some centres unmarked) [I-167]			DC50 (IRAK4 [1]; [3]): 100 to 1000 nM; IC50 (OCI-LY10; Homo sapiens, OCI-Ly10, 96 h): 100 to 500 nM
CC[C@@H]1[C@H](F)C(=O)N[C@@H]1COc1ncc(C#C[C@H]2CC[C@H](CN3CCC(OCCCc4cccc5c4n(C)c(=O)n5C4CCC(=O)NC4=O)CC3)CC2)c2cc(C(N)=O)c(OC)cc12 (some centres unmarked) [I-186]			DC50 (IRAK4 [1]; [3]): 10 to 100 nM; DC50 (IRAK4 [1]; OCI-LY10, 24 hrs, MSD, read-out: IRAK4 MSD degradation in OCI-LY10 at 24 hrs: Average external-Abs DC50): < 10 nM; IC50 (OCI-LY10; Homo sapiens, OCI-Ly10, 96 h): > 1000 nM
